Measured values: PubChem BioAssay (NCI)
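Exposure lasted 48 hours, with cells grown in 96-well plates and compounds tested at five concentrations. TGI: concentration producing complete growth inhibition.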

Key:
Assay in all cases: inhibition of tumour cell growth, NCI panel, 48 h
COLO 205 colon = system: COLO 205 colon
HOP-92 NSCLC = system: HOP-92 NSCLC
K-562 leukemia = system: K-562 leukemia
NCI-H23 lung = system: NCI-H23 lung
SK-OV-3 ovarian = system: SK-OV-3 ovarian
SNB-19 CNS = system: SNB-19 CNS
SR leukemia = system: SR leukemia
SW-620 colon = system: SW-620 colon
U251 CNS = system: U251 CNS
CAKI-1 renal = system: CAKI-1 renal
T-47D breast = system: T-47D breast

SMILES	TGI (COLO 205 colon) [µM]	TGI (HOP-92 NSCLC) [µM]	TGI (K-562 leukemia) [µM]	TGI (NCI-H23 lung) [µM]	TGI (SK-OV-3 ovarian) [µM]	TGI (SNB-19 CNS) [µM]	TGI (SR leukemia) [µM]	TGI (SW-620 colon) [µM]	TGI (U251 CNS) [µM]	TGI (CAKI-1 renal) [µM]	TGI (T-47D breast) [µM]
O=C1c2ccccc2N2Oc3ccccc3C12c1ccccc1 (centres undefined)	> 100	> 100	> 100	> 100	> 100	> 100	> 100	> 100	> 100	–	–
Fc1ccc(C(OCCN2CC3CCC(C2)N3CCCc2ccccc2)c2ccc(F)cc2)cc1	2.74	21.1	4.99	15.3	23.3	22.1	–	17.3	16.1	19.1	6.28
Cc1ccc(N/C(SCc2ccccc2)=C(\C(Cl)=C(Cl)Cl)[N+](=O)[O-])c(C)c1	31.6	–	–	38.5	> 100	> 100	–	33.3	29.3	50.8	69.3
COc1cc2c(cc1OC)[C@@H](Nc1ccc(F)cc1)C1COC(=O)[C@@H]1C2c1cc(OC)c(O)c(OC)c1 (some centres undefined)	33.3	–	11.8	18.6	7	> 100	0.282	> 38.5	4.03	3.76	–
CCOC(=O)C(Cl)(NC(=O)OCc1ccccc1)C(F)(F)F (centres undefined)	> 100	> 100	> 100	> 100	> 100	> 100	–	> 100	> 100	> 100	> 100
CCOc1ccc(N/C(=C(/C(Cl)=C(/Cl)NC(C)(C)C)[N+](=O)[O-])n2nnc3ccccc32)cc1	36.1	–	> 100	55.6	> 100	> 100	–	41.9	35.1	35.3	32
CCc1ccccc1NC(=O)/C(N=O)=C(/C)O	> 100	–	> 100	> 100	> 100	> 100	–	> 100	> 100	> 100	–
COc1ccc(NC(=S)c2ccoc2C)cc1CC(=O)OC(C)C	36.7	67.9	> 100	> 100	> 100	> 100	–	> 100	> 100	> 100	> 100
O=C(N/N=C(/COc1ccccc1)N=Cc1cccnc1)c1ccncc1	> 100	–	> 100	> 100	> 100	> 100	–	> 100	> 100	> 100	> 100
Cc1cccc(N/C(Sc2ccccc2)=C(/C(Cl)=C(Cl)Cl)[N+](=O)[O-])c1	29	–	57.8	37	47.6	> 100	–	31.1	31.9	37.3	42.7
CC(C)N(C(C)C)S(=O)(=O)C[C@]12CC[C@H](CC13OCC(CS(=O)(=O)c1ccccc1)O3)C2(C)C (some centres undefined)	34.8	> 75.3	> 100	> 100	> 100	> 100	–	> 100	> 100	> 100	> 100
CCCCCCCCC/C=C1\CCC(CN(C)C)C1=O (centres undefined)	5.37	4.39	7.53	5.61	32	18.1	6.77	3.08	3.02	4.99	–
Cc1n(Cc2ccccc2)nc2sc(N)n[n+]12	> 100	–	> 100	> 100	> 100	> 100	–	> 100	> 100	> 100	> 100
O=C(c1ccc(Cl)cc1)N(C(=S)OCCOc1ccccc1)c1ccccc1	37.1	30.7	> 100	36.2	> 100	42.8	–	41.2	29.7	41.2	56.5
Cn1c(N)nc(-c2ccc(Cl)cc2)c1SSc1c(-c2ccc(Cl)cc2)nc(N)n1C	3.81	3.7	6.2	3.37	27.4	27.8	–	4.03	4.19	–	5.06
CSc1nc2c(c(=O)[nH]1)N=C(c1ccccc1)CC(c1ccccc1)N2 (centres undefined)	> 100	> 100	68.4	98.2	89.7	> 100	> 100	> 100	> 100	> 100	–
